Data: patent US20240254138A1, “TRICYCLIC PYRIMIDINES AS CYCLIN-DEPENDENT KINASE 7 (CDK7) INHIBITORS” (JANSSEN PHARMACEUTICA NV, priority 2021, published 2024)
Like-named read-outs stand apart in the source and are kept apart here.

How the values were obtained:
[1] = system: RNA Polymerase II Serine 5 phosphorylation (Rpb1 CTD, downstream substrate of CDK7) in A549 cells; experiment: Imaging-based cellular RNA PolII Ser5 phosphorylation assay in A549 cells; assay type: cell-based, human; settings: Homo sapiens, A549, A549 cells, wild-type CDK7; RNA PolII Ser5 phosphorylation; averaged over all measurements; read-out: CDK7_A549 Wild-type CDK7 (pIC50) (converted)
In short: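 A549 cells, seeded 1000/well in DMEM with 1% FBS and cultured 20 h, were treated with compound for 3 h at 37 °C. Ser5-phospho-Rpb1 CTD detected by immunofluorescence imaging after fixation and methanol permeabilization; IC50 from curve fit normalized to DMSO and 10 μM reference-compound controls.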

[2] = system: RNA Polymerase II Serine 5 phosphorylation in A549 cells overexpressing CDK7-mutant (C312S); experiment: Imaging-based cellular RNA PolII Ser5 phosphorylation assay in A549 cells overexpressing CDK7-mutant (C312S); assay type: cell-based, human; settings: Homo sapiens, A549, A549 cells overexpressing CDK7-mutant (C312S); RNA PolII Ser5 phosphorylation; averaged over all measurements; read-out: CDK7_A549 mutant hCDK7(pIC50) (converted)
In short: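 A549 cells overexpressing CDK7 C312S (with endogenous wild-type CDK7) were treated with compound for 3 h at 37 °C in 1% FBS medium. Phospho-Rpb1 CTD Ser5 was immunostained after fixation and imaged. IC50 came from curve fit of % control, normalised to DMSO and 10 μM reference-compound controls.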

[3] = target: CDK7/cyclinH/MAT1 trimeric complex (Homo sapiens, UniProt P50613); experiment: In vitro CDK7 assay, potency of irreversible covalent inhibitors (kinact/KI), coupled PK/LDH ADP readout at 340 nm; settings: for Ki: CDK7 (20 nM enz.) (KI, μM); for Ki / CDK7 (20 nM enz.) (kinact, s^−1) / CDK7 (20 nM enz.) (kinact/KI, M^−1*s^−1): 20 nM enzyme; for kinact: read-out: CDK7 (20 nM enz.) (kinact, s^−1), 20 nM enzyme
CDK7/cyclinH/MAT1 trimeric complex, sequence (P50613 whole entry): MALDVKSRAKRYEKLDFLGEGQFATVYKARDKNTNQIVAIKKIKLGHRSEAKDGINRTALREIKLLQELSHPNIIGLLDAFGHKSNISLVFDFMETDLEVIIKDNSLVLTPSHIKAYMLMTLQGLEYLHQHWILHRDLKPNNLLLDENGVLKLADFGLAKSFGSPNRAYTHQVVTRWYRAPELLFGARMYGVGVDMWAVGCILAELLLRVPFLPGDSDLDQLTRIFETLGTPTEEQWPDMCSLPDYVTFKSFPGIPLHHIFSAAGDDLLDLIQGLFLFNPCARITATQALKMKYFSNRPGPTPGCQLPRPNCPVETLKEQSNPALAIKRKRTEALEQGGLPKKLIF
CDK7/cyclinH/MAT1 trimeric complex, sequence (P51946 whole entry partner): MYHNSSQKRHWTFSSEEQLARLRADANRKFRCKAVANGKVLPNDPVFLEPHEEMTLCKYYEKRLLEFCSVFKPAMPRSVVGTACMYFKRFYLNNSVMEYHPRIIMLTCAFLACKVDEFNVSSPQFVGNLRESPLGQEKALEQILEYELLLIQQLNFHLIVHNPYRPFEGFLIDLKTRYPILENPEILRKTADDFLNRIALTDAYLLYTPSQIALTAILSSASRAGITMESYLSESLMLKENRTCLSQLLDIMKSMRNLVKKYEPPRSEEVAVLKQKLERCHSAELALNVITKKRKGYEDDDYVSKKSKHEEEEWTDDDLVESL
CDK7/cyclinH/MAT1 trimeric complex, sequence (P51948 whole entry partner): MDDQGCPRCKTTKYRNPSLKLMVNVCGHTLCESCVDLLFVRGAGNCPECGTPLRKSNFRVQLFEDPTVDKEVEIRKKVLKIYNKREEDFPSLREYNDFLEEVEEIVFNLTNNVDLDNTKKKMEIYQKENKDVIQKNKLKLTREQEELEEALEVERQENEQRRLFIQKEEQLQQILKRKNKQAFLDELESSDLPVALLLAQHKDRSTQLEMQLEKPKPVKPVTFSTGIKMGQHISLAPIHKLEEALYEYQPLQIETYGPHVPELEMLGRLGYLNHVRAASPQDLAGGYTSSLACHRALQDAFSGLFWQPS

[4] = read-out: CDK7 (20 nM enz.) (kinact/KI, M^−1*s^−1), 20 nM enzyme
[5] = read-out: CDK7 (kinact/KI, M^−1*s^−1), potency of irreversible covalent inhibitors, 1 mM ATP, room temperature, averaged values over all measurements
[6] = read-out: CDK7 (20 nM enz.) (kobs/[I], M^−1*s^−1), 20 nM enzyme

Row | SMILES | IC50 [1] | IC50 [2] | Ki [3] | kinact [3] | kinact/KI [3, 4] | kinact/KI [3, 5] | kinact/KI [3, 6] | CDK7 (20 nM enz.) (kinact, s^−1) [3] | CDK7 (20 nM enz.) (kinact/KI, M^−1*s^−1) [3]
1 | CC#CC(=O)N1CC(N2CC[C@H](c3cc4c(c(C)n3)OCc3c(N5CCOCC5)ccnc3N4)C2)C1 (single isomer, unassigned) [Compound 387] | 977 nM | > 10000 nM | 0.451 µM | 2.21e-05 s⁻¹ | 49.1 M⁻¹ s⁻¹ | – | – | – | –
2 | C=CC(=O)N1CC[C@@H](N2CCC(c3cc4c(c(C)n3)OCc3c(N5CCOCC5)ccnc3N4)CC2)C1 (single isomer, unassigned) [Compound 184] | 32.4 nM | > 10000 nM | 0.0446 µM | 6.03e-05 s⁻¹ | 1350 M⁻¹ s⁻¹ | – | – | – | –
3 | C=CC(=O)N1CC(N2CCC(c3ccc4c(c3)Nc3nccc(N5CC=C(CCO)CC5)c3CO4)CC2)C1 [Compound 12] | 537 nM | > 10000 nM | – | – | – | 296 M⁻¹ s⁻¹ | – | – | –
4 | C=CC(=O)N1CC[C@@H](N2CCC(c3cc4c(c(C)n3)OCc3c(N5CCOCC5)ccnc3N4)CC2)C1 (single isomer, unassigned) [Compound 282] | 30.9 nM | > 10000 nM | 0.0397 µM | 5.01e-05 s⁻¹ | 1260 M⁻¹ s⁻¹ | – | – | – | –
5 | C=CC(=O)N1CC(N2CCC(c3cc4c(c(C)n3)OCc3c(N5CCOCC5)ccnc3N4)N(C)CC2)C1 (centres unmarked) [Compound 367] | 75.9 nM | 10500 nM | 0.0482 µM | 3.37e-05 s⁻¹ | 698 M⁻¹ s⁻¹ | – | – | – | –
6 | C=CC(=O)N1CC[C@@H](N2CC(c3cc(C)c4c(c3)Nc3nccc(N5CCOCC5)c3[C@@H](C)O4)C2)C1 (single isomer, unassigned) [Compound 398] | 30.2 nM | 6170 nM | – | – | – | – | 1630 M⁻¹ s⁻¹ | – | –
7 | C#Cc1cc2c(cc1C1CCN(C3CN(C(=O)C=C)C3)CC1)Nc1nccc(C3CCOCC3)c1CO2 [Compound 120] | 331 nM | > 10000 nM | 0.0783 µM | 8.13e-05 s⁻¹ | 1040 M⁻¹ s⁻¹ | – | – | – | –
8 | C=CC(=O)N1CC[C@H](N2CC(c3cc(C)c4c(c3)Nc3nccc(-c5cnn(C)c5)c3CO4)C2)C1 (single isomer, unassigned) [Compound 361] | 60.3 nM | ~10000 nM | 0.0291 µM | 5.06e-05 s⁻¹ | 1740 M⁻¹ s⁻¹ | – | – | – | –
9 | C=CC(=O)N1CCC(N2CC(c3cc4c(c(C)n3)O[C@@H](C)c3c(C5CCOCC5)ccnc3N4)C2)CC1 (single isomer, unassigned) [Compound 468] | 2040 nM | > 10000 nM | 2.21 µM | 3.64e-05 s⁻¹ | 16.5 M⁻¹ s⁻¹ | – | – | – | –
10 | C=CC(=O)N1CC(N2CC(c3cc(C)c4c(c3)Nc3nccc(N5CCOCC5)c3CO4)C2)C1 [Compound 215] | 64.6 nM | > 10000 nM | – | – | – | – | 753 M⁻¹ s⁻¹ | – | –
11 | CC#CC(=O)N1CCC(N2CCN(c3cc4c(c(C)n3)OCc3c(N5CCOCC5)ccnc3N4)CC2)CC1 [Compound 393] | 105 nM | > 10000 nM | 0.0477 µM | 2.18e-05 s⁻¹ | 457 M⁻¹ s⁻¹ | – | – | – | –
12 | C=CC(=O)N1CCC(N2CC(c3cc(C)c4c(c3)Nc3nccc(-c5cnn(C)c5)c3CO4)C2)CC1 [Compound 100] | 51.3 nM | 3310 nM | – | – | – | – | – | 5.051e-05 s⁻¹ | 1179.87 M⁻¹ s⁻¹
13 | C=CC(=O)N1CC[C@@H](N2CC(c3cc4c(c(C(F)(F)F)n3)O[C@@H](C)c3c(N5CCOCC5)ccnc3N4)C2)C1 (single isomer, unassigned) [Compound 504] | 47.9 nM | 7760 nM | – | – | 681 M⁻¹ s⁻¹ | – | – | – | –
14 | C=CC(=O)N1CCC(N2CC(c3cc4c(c(C5CC5)n3)OCc3c(N5CCOCC5)ccnc3N4)C2)CC1 [Compound 336] | 49 nM | 1320 nM | 0.0564 µM | – | – | – | – | 1.295e-05 s⁻¹ | 229.663 M⁻¹ s⁻¹
15 | CC#CC(=O)N1CC(N2CCC(c3cc4c(c(C5CC5)n3)O[C@@H](C)c3c(N5CCOCC5)ccnc3N4)CC2)C1 (single isomer, unassigned) [Compound 498] | 148 nM | > 10000 nM | 0.0867 µM | 5.15e-05 s⁻¹ | 594 M⁻¹ s⁻¹ | – | – | – | –
16 | C=CC(=O)N1CC[C@@H](N2CCC(c3ccc4c(c3)Nc3nccc(N5CCOCC5)c3CO4)CC2)C1 (single isomer, unassigned) [Compound 44] | < 9.77 nM | 832 nM | – | – | – | 602 M⁻¹ s⁻¹ | 1570 M⁻¹ s⁻¹ | – | –
17 | CC#CC(=O)N1CCC(n2cc(-c3cc(C)c4c(c3)Nc3nccc(N5CCOCC5)c3CO4)cn2)CC1 [Compound 381] | 372 nM | 6920 nM | – | – | – | – | – | – | –
18 | CC#CC(=O)N1CCC(N2CC(c3cc4c(c(C#N)n3)OC(C)c3c(N5CCOCC5)ccnc3N4)C2)CC1 (centres unmarked) [Compound 511] | 115 nM | 5620 nM | – | – | – | – | – | – | –
